PubChem BioAssay AID1745844 (Carcinogenic Potency Database (CPDB), 2022)
“And” between values parts separate entries of the source, which are not always exact repeats. Equal entries are not always repeated. The source made the active and inactive calls. The rule behind the calls is not given here.

Test system: rodent lifetime carcinogenesis bioassay, tumor incidence TD50
Assay: chronic cancer bioassays in animals – CPDB, compiled studies (AID 1745844)

Nc1ncn([C@@H]2O[C@H](CO)[C@@H](O)[C@H]2O)c(=O)n1
TD50 (mouse, strain B6C3F1, females, i.p., site: all sites + multiple organs, lesion: lymphoma + granulocytic leukemia + granulocytic sarcoma, dosed 52 weeks, study length 81 weeks): 0.256 mg/kg/day
TD50 (mouse, strain B6C3F1, females, i.p., site: all sites, lesion: lymphoma, dosed 52 weeks, study length 81 weeks): 0.615 mg/kg/day
TD50 (mouse, strain B6C3F1, females, i.p., site: any site (literature study), lesion: several types, types named in the paper, dosed 52 weeks, study length 81 weeks): 0.219 mg/kg/day
TD50 (mouse, strain B6C3F1, females, i.p., site: multiple organs, lesion: granulocytic leukemia + granulocytic sarcoma, dosed 52 weeks, study length 81 weeks): 0.52 mg/kg/day
TD50 (mouse, strain B6C3F1, males, i.p., site: any site (literature study), lesion: several types, types named in the paper, dosed 52 weeks, study length 81 weeks): 1.05 mg/kg/day
TD50 (mouse, strain B6C3F1, males, i.p., site: liver, lesion: hepatocellular adenoma + hepatocellular carcinoma + neoplastic nodule, dosed 52 weeks, study length 81 weeks): 15.7 mg/kg/day
TD50 (mouse, strain B6C3F1, males, i.p., site: lung, lesion: alveolar/bronchiolar adenoma + alveolar/bronchiolar carcinoma, dosed 52 weeks, study length 81 weeks): 61.4 mg/kg/day
TD50 (mouse, strain BALB/c, females, i.p., site: any site (literature study), lesion: one or several types, types not named, dosed 50 weeks, study length 72 weeks): 0.0364 mg/kg/day
TD50 (mouse, strain BALB/c, females, i.p., site: lymphoreticular system, lesion: several types, types named in the paper, dosed 50 weeks, study length 72 weeks): 0.0569 mg/kg/day
TD50 (mouse, strain BALB/c, females, i.p., site: mammary gland, lesion: adenocarcinoma, type B, dosed 50 weeks, study length 72 weeks): 0.618 mg/kg/day
TD50 (mouse, strain BALB/c, females, i.p., site: mammary gland, lesion: several types, types named in the paper, dosed 50 weeks, study length 72 weeks): 0.432 mg/kg/day
TD50 (mouse, strain BALB/c, females, i.p., site: skin, lesion: several types, types named in the paper, dosed 50 weeks, study length 72 weeks): 0.499 mg/kg/day
TD50 (mouse, strain BALB/c, males, i.p., site: any site (literature study), lesion: one or several types, types not named, dosed 50 weeks, study length 67 weeks): 0.0539 mg/kg/day
TD50 (mouse, strain BALB/c, males, i.p., site: liver, lesion: hepatocellular adenoma, dosed 50 weeks, study length 67 weeks): 1.49 mg/kg/day
TD50 (mouse, strain BALB/c, males, i.p., site: lung, lesion: adenoma, dosed 50 weeks, study length 67 weeks): 0.121 mg/kg/day
TD50 (mouse, strain BALB/c, males, i.p., site: lymphoreticular system, lesion: several types, types named in the paper, dosed 50 weeks, study length 67 weeks): 0.285 mg/kg/day
TD50 (mouse, strain BALB/c, males, i.p., site: skin, lesion: several types, types named in the paper, dosed 50 weeks, study length 67 weeks): 0.98 mg/kg/day
TD50 (rat, strain Fischer 344, males, i.p., site: any site (literature study), lesion: one or several types, types not named, dosed 52 weeks, study length 52 weeks): 0.17 mg/kg/day
TD50 (rat, strain Fischer 344, males, i.p., site: testis, lesion: one or several types, types not named, dosed 52 weeks, study length 52 weeks): 0.222 mg/kg/day
TD50 (rat, strain Sprague-Dawley, females, i.p., site: any site (literature study), lesion: several types, types named in the paper, dosed 34 weeks, study length 80 weeks): 0.487 mg/kg/day
TD50 (rat, strain Sprague-Dawley, males, i.p., site: any site (literature study), lesion: several types, types named in the paper, dosed 34 weeks, study length 80 weeks): 0.328 mg/kg/day

C=CCN(N=O)C(N)=O
TD50 (rat, strain Fischer 344, females, by gavage, site: forestomach, lesion: one or several types, types not named, dosed 30 weeks, study length 104 weeks): 0.476 mg/kg/day
TD50 (rat, strain Fischer 344, females, by gavage, site: mammary gland, lesion: adenocarcinoma, dosed 30 weeks, study length 104 weeks): 0.601 mg/kg/day
TD50 (rat, strain Fischer 344, females, by gavage, site: uterus, lesion: several types, types named in the paper, dosed 30 weeks, study length 104 weeks): 1.87 mg/kg/day
TD50 (rat, strain Fischer 344, males, by gavage, site: Zymbal's gland, lesion: one or several types, types not named, dosed 30 weeks, study length 104 weeks): 0.541 mg/kg/day
TD50 (rat, strain Fischer 344, males, by gavage, site: colon, lesion: one or several types, types not named, dosed 30 weeks, study length 104 weeks): 0.541 mg/kg/day
TD50 (rat, strain Fischer 344, males, by gavage, site: forestomach, lesion: one or several types, types not named, dosed 30 weeks, study length 104 weeks): 0.266 mg/kg/day
TD50 (rat, strain Fischer 344, males, by gavage, site: lung, lesion: several types, types named in the paper, dosed 30 weeks, study length 104 weeks): 0.421 mg/kg/day

[Cl][Hg][Cl]
TD50 (mouse, strain B6C3F1, females, by gavage, site: any site (literature study), lesion: several types, types named in the paper, dosed 103 weeks, study length 104 weeks): 5.83 mg/kg/day (inactive)
TD50 (mouse, strain B6C3F1, females, by gavage, site: lung, lesion: alveolar/bronchiolar adenoma + alveolar/bronchiolar carcinoma, dosed 103 weeks, study length 104 weeks): 40.8 mg/kg/day
TD50 (mouse, strain B6C3F1, males, by gavage, site: kidney, lesion: tubular-cell adenocarcinoma, dosed 103 weeks, study length 104 weeks): 240 mg/kg/day
TD50 (mouse, strain B6C3F1, males, by gavage, site: kidney, lesion: tubule adenoma + tubular-cell adenocarcinoma, dosed 103 weeks, study length 104 weeks): 81.6 mg/kg/day
TD50 (mouse, strain B6C3F1, males, by gavage, site: kidney, lesion: tubule adenoma, dosed 103 weeks, study length 104 weeks): 125 mg/kg/day
TD50 (mouse, strain Charles River CD1, females, in drinking water, site: all sites, lesion: lymphoma and leukemia, combined, dosed 118 weeks, study length 118 weeks): 3.58 mg/kg/day (inactive)
TD50 (mouse, strain Charles River CD1, females, in drinking water, site: any site (literature study), lesion: malignant tumor, dosed 118 weeks, study length 118 weeks): 5.55 mg/kg/day (inactive)
TD50 (mouse, strain Charles River CD1, females, in drinking water, site: any site (literature study), lesion: several types, types named in the paper, dosed 118 weeks, study length 118 weeks): 2.42 mg/kg/day (inactive)
carcinogen call (mouse, strain Charles River CD1, females, in drinking water, site: lung, lesion: one or several types, types not named, dosed 118 weeks, study length 118 weeks): negative (inactive)
carcinogen call (mouse, strain Charles River CD1, males, in drinking water, site: any site (literature study), lesion: malignant tumor, dosed 119 weeks, study length 119 weeks): negative (inactive)
TD50 (mouse, strain Charles River CD1, males, in drinking water, site: any site (literature study), lesion: several types, types named in the paper, dosed 119 weeks, study length 119 weeks): 3.2 mg/kg/day (inactive)
TD50 (mouse, strain Charles River CD1, males, in drinking water, site: lung, lesion: one or several types, types not named, dosed 119 weeks, study length 119 weeks): 11.2 mg/kg/day (inactive)
TD50 (rat, strain Fischer 344, females, by gavage, site: forestomach, lesion: squamous-cell papilloma, dosed 103 weeks, study length 104 weeks): 51.8 mg/kg/day
TD50 (rat, strain Fischer 344, females, by gavage, site: liver, lesion: hepatocellular adenoma + hepatocellular carcinoma + neoplastic nodule, dosed 103 weeks, study length 104 weeks): 105 mg/kg/day
TD50 (rat, strain Fischer 344, males, by gavage, site: adrenal medulla, lesion: pheochromocytoma benign, bilateral + pheochromocytoma, benign, dosed 103 weeks, study length 104 weeks): 1.56 mg/kg/day
TD50 (rat, strain Fischer 344, males, by gavage, site: adrenal medulla, lesion: pheochromocytoma benign, bilateral + pheochromocytoma, complex + pheochromocytoma, malignant + pheochromocytoma malignant, bil, dosed 103 weeks, study length 104 weeks): 1.6 mg/kg/day
TD50 (rat, strain Fischer 344, males, by gavage, site: any site (literature study), lesion: several types, types named in the paper, dosed 103 weeks, study length 104 weeks): 1.04 mg/kg/day
TD50 (rat, strain Fischer 344, males, by gavage, site: forestomach, lesion: squamous-cell papilloma, dosed 103 weeks, study length 104 weeks): 3.12 mg/kg/day
TD50 (rat, strain Fischer 344, males, by gavage, site: liver, lesion: hepatocellular adenoma + hepatocellular carcinoma + neoplastic nodule, dosed 103 weeks, study length 104 weeks): 10.3 mg/kg/day
TD50 (rat, strain Fischer 344, males, by gavage, site: testis, lesion: interstitial-cell adenoma, bilateral + interstitial-cell adenoma, dosed 103 weeks, study length 104 weeks): 0.825 mg/kg/day
TD50 (rat, strain Fischer 344, males, by gavage, site: thyroid gland, lesion: follicular-cell adenoma + follicular-cell carcinoma, dosed 103 weeks, study length 104 weeks): 5.25 mg/kg/day
TD50 (rat, strain Fischer 344, males, by gavage, site: thyroid gland, lesion: follicular-cell adenoma, dosed 103 weeks, study length 104 weeks): 5.98 mg/kg/day
TD50 (rat, strain Fischer 344, males, by gavage, site: thyroid gland, lesion: follicular-cell carcinoma, dosed 103 weeks, study length 104 weeks): 7.32 mg/kg/day

CNC(=S)N(C)C
TD50 (mouse, strain B6C3F1, females, in feed, site: any site (literature study), lesion: several types, types named in the paper, dosed 77 weeks, study length 91 weeks): 1970 mg/kg/day (inactive)
TD50 (mouse, strain B6C3F1, females, in feed, site: lung, lesion: alveolar/bronchiolar adenoma + alveolar/bronchiolar carcinoma, dosed 77 weeks, study length 91 weeks): 1260 mg/kg/day
carcinogen call (mouse, strain B6C3F1, males, in feed, site: any site (literature study), lesion: several types, types named in the paper, dosed 77 weeks, study length 91 weeks): negative (inactive)
TD50 (mouse, strain B6C3F1, males, in feed, site: lung, lesion: alveolar/bronchiolar adenoma + alveolar/bronchiolar carcinoma, dosed 77 weeks, study length 91 weeks): 478 mg/kg/day
TD50 (rat, strain Fischer 344, females, in feed, site: any site (literature study), lesion: several types, types named in the paper, dosed 77 weeks, study length 106 weeks): 17.4 mg/kg/day
TD50 (rat, strain Fischer 344, females, in feed, site: thyroid gland, lesion: follicular-cell adenoma + follicular-cell carcinoma, dosed 77 weeks, study length 106 weeks): 25.8 mg/kg/day
TD50 (rat, strain Fischer 344, females, in feed, site: thyroid gland, lesion: follicular-cell carcinoma, dosed 77 weeks, study length 106 weeks): 45 mg/kg/day
carcinogen call (rat, strain Fischer 344, males, in feed, site: any site (literature study), lesion: several types, types named in the paper, dosed 77 weeks, study length 106 weeks): negative (inactive)

Cc1cc(N)ccc1N
TD50 (mouse, strain B6C3F1, females, in feed, site: any site (literature study), lesion: several types, types named in the paper, dosed 78 weeks, study length 94 weeks): 33200 mg/kg/day
TD50 (mouse, strain B6C3F1, females, in feed, site: liver, lesion: hepatocellular adenoma + hepatocellular carcinoma + neoplastic nodule, dosed 78 weeks, study length 94 weeks): 1960 mg/kg/day
TD50 (mouse, strain B6C3F1, females, in feed, site: lung, lesion: alveolar/bronchiolar adenoma + alveolar/bronchiolar carcinoma, dosed 78 weeks, study length 94 weeks): 364 mg/kg/day (inactive) and 364 mg/kg/day
TD50 (mouse, strain B6C3F1, males, in feed, site: any site (literature study), lesion: several types, types named in the paper, dosed 78 weeks, study length 94 weeks): 272 mg/kg/day (inactive)
TD50 (mouse, strain B6C3F1, males, in feed, site: liver, lesion: hepatocellular adenoma + hepatocellular carcinoma + neoplastic nodule, dosed 78 weeks, study length 94 weeks): 288 mg/kg/day
TD50 (mouse, strain B6C3F1, males, in feed, site: lung, lesion: alveolar/bronchiolar adenoma + alveolar/bronchiolar carcinoma, dosed 78 weeks, study length 94 weeks): 3560 mg/kg/day
carcinogen call (rat, strain Fischer 344, females, in feed, site: any site (literature study), lesion: several types, types named in the paper, dosed 78 weeks, study length 107 weeks): negative (inactive)
carcinogen call (rat, strain Fischer 344, males, in feed, site: any site (literature study), lesion: several types, types named in the paper, dosed 78 weeks, study length 106 weeks): negative (inactive)
TD50 (rat, strain Fischer 344, males, in feed, site: liver, lesion: hepatocellular adenoma + hepatocellular carcinoma + neoplastic nodule, dosed 78 weeks, study length 106 weeks): 233 mg/kg/day
